Experimental data taken from patent publication US20260217706A1, “HETEROCYCLIC COMPOUNDS, PREPARATION METHOD THEREFOR AND USE THEREOF” (GUANGZHOU YUFAN NANTU BIOTECHNOLOGIES CO., LTD, priority 2023, published 2026).

How the values were obtained:
[1] = test system: anti-CD3 activated human PBMCs; assay: Effect of compounds on the level of IL-2 secretion by anti-CD3 activated human PBMCs (IL-2 ELISA); format: cell-based; details: compound concentration at which fold change in IL-2 = 5; hPBMCs, CD3 antibody 2 μg/mL, 48 h, compound from 3 μM
Summary of the method: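 Human PBMCs were preincubated 1 h, then exposed to compound (10 points, 3-fold from 3 μM final) with anti-CD3 at 2 μg/mL for 48 h at 37° C. Supernatant IL-2 was measured by ELISA as fold change over DMSO.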

CBL-B protein = CBL-B protein (Homo sapiens, UniProt Q13191); assay: CBL-B binding experiment (Streptavidin-Tb cryptate / Ligand L1 displacement); details: 8 nM CBL-B protein, 25° C., 60 minutes; Ki=Relative IC50/2
Sequence of CBL-B protein (Q13191 whole entry): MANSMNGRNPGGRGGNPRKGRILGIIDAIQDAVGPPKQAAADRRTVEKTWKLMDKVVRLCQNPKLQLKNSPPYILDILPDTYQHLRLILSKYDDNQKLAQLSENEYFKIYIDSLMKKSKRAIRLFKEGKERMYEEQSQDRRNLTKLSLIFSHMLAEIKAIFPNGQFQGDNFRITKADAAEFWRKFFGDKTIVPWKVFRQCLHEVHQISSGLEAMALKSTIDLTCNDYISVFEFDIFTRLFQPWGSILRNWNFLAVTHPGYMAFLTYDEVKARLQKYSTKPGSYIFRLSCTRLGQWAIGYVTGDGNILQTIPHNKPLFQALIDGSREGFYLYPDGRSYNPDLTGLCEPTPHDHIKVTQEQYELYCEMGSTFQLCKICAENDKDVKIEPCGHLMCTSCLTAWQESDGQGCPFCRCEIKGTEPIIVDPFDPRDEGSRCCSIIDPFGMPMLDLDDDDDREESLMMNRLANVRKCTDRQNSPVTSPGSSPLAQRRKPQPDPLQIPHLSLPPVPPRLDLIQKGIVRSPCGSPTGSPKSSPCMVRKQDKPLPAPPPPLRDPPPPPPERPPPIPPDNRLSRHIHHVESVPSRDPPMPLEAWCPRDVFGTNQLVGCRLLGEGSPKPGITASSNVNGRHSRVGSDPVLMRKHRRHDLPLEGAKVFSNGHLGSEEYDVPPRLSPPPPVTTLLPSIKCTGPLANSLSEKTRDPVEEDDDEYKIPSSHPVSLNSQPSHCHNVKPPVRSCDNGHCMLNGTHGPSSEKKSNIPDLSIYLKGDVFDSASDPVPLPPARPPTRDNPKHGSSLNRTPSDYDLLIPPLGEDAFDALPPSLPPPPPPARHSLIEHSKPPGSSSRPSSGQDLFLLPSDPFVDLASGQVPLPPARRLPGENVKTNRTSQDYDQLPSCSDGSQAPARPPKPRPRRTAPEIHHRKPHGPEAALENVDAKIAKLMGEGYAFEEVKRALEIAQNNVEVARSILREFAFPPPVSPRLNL
Summary of the method: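 Buffer was 20 mM HEPES pH 7.5, 150 mM NaCl, 0.01% Triton X-100, 0.5 mM TCEP and BSA. Ten-point compound dilutions were incubated with 8 nM CBL-B for 60 min at 25° C., then read by luminescence after another 60 min at room temperature. IC50 came from a four-parameter fit, with Ki = relative IC50/2.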

| Ki (CBL-B protein) [nM] | SMILES | IL-2 CFC=5/nM [1] [nM] |
| --- | --- | --- |
| < 50 | C[C@H]1CCCN(Cc2cc3c(C(F)(F)F)cn(-c4cccc(C5(c6nncn6C)CC(F)(F)C5)c4)c(=O)c3[nH]2)C1 [Compound T109, 6-[3-[3,3-difluoro-1-(4-methyl-1,2,4-triazol-3-yl)cyclobutyl]phenyl]-2-[[(3S)-3-methyl-1-piperidyl]methyl]-4-(trifluoromethyl)-1H-pyrrolo[2,3-c]pyridin-7-one] | <500 |
| < 50 | Cn1cnnc1[C@]1(c2cccc(-n3cc(C(F)(F)F)c4cc(CN5C[C@@H]6CC[C@@H](C6)C5)[nH]c4c3=O)c2)C[C@H](C)C1 [Compound T087, 2-((3-azabicyclo[3.2.1]octan-3-yl)methyl)-6-(3-((1s,3s)-3-methyl-1-(4-methyl-4H-1,2,4-triazol-3-yl)cyclobutyl)phenyl)-4-(trifluoromethyl)-1,6-dihydro-7H-pyrrolo[2,3-c]pyridin-7-one] | <500 |
| < 50 | C[C@H]1CCCN(Cc2cc3c(C(F)(F)F)cn(-c4cc(F)cc([C@]5(c6nncn6C)C[C@H](C)C5)c4)c(=O)c3[nH]2)C1 [Compound T103, 6-(3-fluoro-5-((1r,3S)-3-methyl-1-(4-methyl-4H-1,2,4-triazol-3-yl)cyclobutyl)phenyl)-2-(((S)-3-methylpiperidin-1-yl)methyl)-4-(trifluoromethyl)-1,6-dihydro-7H-pyrrolo[2,3-c]pyridin-7-one] | <500 |
| < 50 | Cn1cnnc1C1(c2cccc(-n3cc(C(F)(F)F)c4cc(CNCCCC(F)(F)F)[nH]c4c3=O)c2)CCC1 [Compound T091, 6-[3-[1-(4-methyl-1,2,4-triazol-3-yl)cyclobutyl]phenyl]-2-[(4,4,4-trifluorobutylamino)methyl]-4-(trifluoromethyl)-1H-pyrrolo[2,3-c]pyridin-7-one] | <500 |
| < 50 | C[C@H]1CCCN(Cc2cc3c(C(F)(F)F)cn(-c4cccc(C5([C@@H](F)c6nncn6C)CC(F)(F)C5)c4)c(=O)c3[nH]2)C1 [Compound T119, 6-(3-(3,3-difluoro-1-((R)-fluoro(4-methyl-4H-1,2,4-triazol-3-yl)methyl)cyclobutyl)phenyl)-2-(((S)-3-methylpiperidin-1-yl)methyl)-4-(trifluoromethyl)-1,6-dihydro-7H-pyrrolo[2,3-c]pyridin-7-one] | <500 |
| < 50 | C[C@H]1CCCN(Cc2cc3c(C(F)(F)F)cn(-c4cccc(C5([C@H](F)c6nncn6C)CC(F)(F)C5)c4)c(=O)c3[nH]2)C1 [Compound T120, 6-(3-(3,3-difluoro-1-((S)-fluoro(4-methyl-4H-1,2,4-triazol-3-yl)methyl)cyclobutyl)phenyl)-2-(((S)-3-methylpiperidin-1-yl)methyl)-4-(trifluoromethyl)-1,6-dihydro-7H-pyrrolo[2,3-c]pyridin-7-one] | <500 |
| < 50 | Cn1cnnc1C1(c2cccc(-n3cc(C(F)(F)F)c4cc(CN5CCCC(C(F)F)C5)[nH]c4c3=O)c2)CCC1 (racemic) [Compound T114, 6-[3-[1-(4-methyl-1,2,4-triazol-3-yl)cyclobutyl]phenyl]-2-[[rac-(3S)-3-(difluoromethyl)-1-piperidyl]methyl]-4-(trifluoromethyl)-1H-pyrrolo[2,3-c]pyridin-7-one] | <500 |
| < 50 | C[C@H]1CCCN(Cc2cc3c(C(F)(F)F)cn(-c4cc(C#N)cc([C@]5(c6nncn6C)C[C@H](C)C5)c4)c(=O)c3[nH]2)C1 [Compound T122, 3-((1r,3S)-3-methyl-1-(4-methyl-4H-1,2,4-triazol-3-yl)cyclobutyl)-5-(2-(((S)-3-methylpiperidin-1-yl)methyl)-7-oxo-4-(trifluoromethyl)-1,7-dihydro-6H-pyrrolo[2,3-c]pyridin-6-yl)benzonitrile] | <500 |

The next lines start with the compound.

| SMILES | Ki (CBL-B protein) [nM] | IL-2 CFC=5/nM [1] [nM] |
| --- | --- | --- |
| CCN(Cc1cc2c(C(F)(F)F)cn(-c3cccc(C4(c5nncn5C)CCC4)c3)c(=O)c2[nH]1)C(C)C [Compound T019, 2-[[ethyl(isopropyl)amino]methyl]-6-[3-[1-(4-methyl-1,2,4-triazol-3-yl)cyclobutyl]phenyl]-4-(trifluoromethyl)-1H-pyrrolo[2,3-c]pyridin-7-one] | < 50 | <500 |
| Cn1cnnc1C1(c2cccc(-n3cc(C(F)(F)F)c4cc(CN5CC6CCC(C6)C5)[nH]c4c3=O)c2)CCC1 [Compound T053, 2-(3-azabicyclo[3.2.1]octan-3-ylmethyl)-6-[3-[1-(4-methyl-1,2,4-triazol-3-yl)cyclobutyl]phenyl]-4-(trifluoromethyl)-1H-pyrrolo[2,3-c]pyridin-7-one] | < 50 | <500 |
| Cn1cnnc1[C@]1(c2cccc(-n3cc(C(F)(F)F)c4cc(CN5CCC[C@H]6C[C@H]65)[nH]c4c3=O)c2)C[C@H](C)C1 [Compound T055, 2-(((1R,6S)-2-azabicyclo [4.1.0]heptan-2-yl)methyl)-6-(3-((1s,3S)-3-methyl-1-(4-methyl-4H-1,2,4-triazol-3-yl)cyclobutyl)phenyl)-4-(trifluoromethyl)-1,6-dihydro-7H-pyrrolo[2,3-c]pyridin-7-one] | < 50 | <500 |
| C[C@H]1CCCN(Cc2cc3c(C4CC4)cn(-c4cccc(C5(Cc6nncn6C)CCC5)c4)c(=O)c3[nH]2)C1 [Compound T010, 4-cyclopropyl-2-[[(3S)-3-methyl-1-piperidyl]methyl]-6-[3-[1-[(4-methyl-1,2,4-triazol-3-yl)methyl]cyclobutyl]phenyl]-1H-pyrrolo[2,3-c]pyridin-7-one] | < 50 | <500 |
| Cn1cnnc1C1(c2cccc(-n3cc(C(F)(F)F)c4cc(CN5CC[C@@H]6C[C@@H]6C5)[nH]c4c3=O)c2)CCC1 [Compound T025, 2-[[(1 S,6S)-3-azabicyclo[4.1.0]heptan-3-yl]methyl]-6-[3-[1-(4-methyl-1,2,4-triazol-3-yl)cyclobutyl]phenyl]-4-(trifluoromethyl)-1H-pyrrolo[2,3-c]pyridin-7-one] | < 50 | <500 |
| C[C@H]1CCCN(Cc2cc3c(C4CC4)cn(-c4cccc(C5(c6nncn6C)CC6(CC6)C5)c4)c(=O)c3[nH]2)C1 [Compound T030, 4-cyclopropyl-2-[[(3S)-3-methyl-1-piperidyl]methyl]-6-[3-[5-(4-methyl-1,2,4-triazol-3-yl)spiro[2.3]hexan-5-yl]phenyl]-1H-pyrrolo[2,3-c]pyridin-7-one] | < 50 | <500 |
| Cn1cnnc1C1(c2cccc(-n3cc(C(F)(F)F)c4cc(CN5CCC6(CC6)C5)[nH]c4c3=O)c2)CCC1 [Compound T023, 2-(5-azaspiro[2.4]heptan-5-ylmethyl)-6-[3-[1-(4-methyl-1,2,4-triazol-3-yl)cyclobutyl]phenyl]-4-(trifluoromethyl)-1H-pyrrolo[2,3-c]pyridin-7-one] | < 50 | <500 |
| Cn1cnnc1[C@]1(c2cccc(-n3cc(C(F)(F)F)c4cc(CN5CC[C@H](F)C5)[nH]c4c3=O)c2)C[C@H](C)C1 [Compound T047, 2-(((S)-3-fluoropyrrolidin-1-yl)methyl)-6-(3-((1s,3R)-3-methyl-1-(4-methyl-4H-1,2,4-triazol-3-yl)cyclobutyl)phenyl)-4-(trifluoromethyl)-1,6-dihydro-7H-pyrrolo[2,3-c]pyridin-7-one] | < 50 | <500 |
| CCCN(Cc1cc2c(C(F)(F)F)cn(-c3cccc([C@]4(c5nncn5C)C[C@@H](C)C4)c3)c(=O)c2[nH]1)C(C)C [Compound T029, 2-((isopropyl(propyl)amino)methyl)-6-(3-((1s,3s)-3-methyl-1-(4-methyl-4H-1,2,4-triazol-3-yl)cyclobutyl)phenyl)-4-(trifluoromethyl)-1,6-dihydro-7H-pyrrolo[2,3-c]pyridin-7-one] | < 50 | <500 |
| Cn1cnnc1C1(c2cccc(-n3cc(C(F)(F)F)c4cc(CNC5(C)CCC5)[nH]c4c3=O)c2)CCC1 [Compound T009, 2-[[(1-methylcyclobutyl)amino]methyl]-6-[3-[1-(4-methyl-1,2,4-triazol-3-yl)cyclobutyl]phenyl]-4-(trifluoromethyl)-1H-pyrrolo[2,3-c]pyridin-7-one] | < 50 | <500 |
| Cn1cnnc1[C@]1(c2cccc(-n3cc(C(F)(F)F)c4cc(CN5CCC[C@@H]6C[C@@H]65)[nH]c4c3=O)c2)C[C@H](C)C1 [Compound T056, 2-(((1 S,6R)-2-azabicyclo [4.1.0]heptan-2-yl)methyl)-6-(3-((1s,3R)-3-methyl-1-(4-methyl-4H-1,2,4-triazol-3-yl)cyclobutyl)phenyl)-4-(trifluoromethyl)-1,6-dihydro-7H-pyrrolo[2,3-c]pyridin-7-one] | < 50 | <500 |
| Cn1cnnc1C1(c2cccc(-n3cc(C(F)(F)F)c4cc(CN5CCC[C@@H](CC#N)C5)[nH]c4c3=O)c2)CCC1 [Compound T080, (S)-2-(1-((6-(3-(1-(4-methyl-4H-1,2,4-triazol-3-yl)cyclobutyl)phenyl)-7-oxo-4-(trifluoromethyl)-6,7-dihydro-1H-pyrrolo[2,3-c]pyridin-2-yl)methyl)piperidin-3-yl)acetonitrile] | < 50 | <500 |
| CC(C)NCc1cc2c(C(F)(F)F)cn(-c3cccc(C4(c5nncn5C)CCC4)c3)c(=O)c2[nH]1 [Compound T104, 2-((isopropylamino)methyl)-6-(3-(1-(4-methyl-4H-1,2,4-triazol-3-yl)cyclobutyl)phenyl)-4-(trifluoromethyl)-1,6-di hydro-7H-pyrrolo[2,3-c]pyridin-7-one] | < 50 | <500 |
